Assay results from patent US11046696B2, “Fused pyrimidine compound or salt thereof” (TAIHO PHARMACEUTICAL CO., LTD., priority 2016, dated 2021).
Where two headings read alike, the source gives them in different places.

Columns and labels:
[1] = tested on: human thyroid cancer cell line TT with RET activating mutation; assay: In vivo antitumor effect, mice subcutaneously implanted with TT cells; parameters: species or system BALB/cA Jcl-nu/nu male mice; details: 100 mg/kg/day group, grouping day (day 0)
Experimental: Human thyroid cancer cell lines (TT) were subcutaneously implanted into the right frank of 6- to 7-week-old BALB/cA Jcl-nu/nu male mice. After about 2 to 3 weeks from the cell implantation, the length (mm) and the width (mm) of tumors found in mouse bodies were measured. […] The day on which the mice were divided into groups was determined to be the “grouping day” (day 0 or 1).
A control group was administered a solvent (0.5% HPMC/0.1N HCl).
To determine the index of the antitumor effect, TV of each drug-administrated group was measured on day 15, and the tumor volume on day 15 relative to the tumor volume on the grouping day (day 0 or 1) (relative tumor volume: RTV) and T/C (%) were calculated from the following equations, and the antitumor effect was evaluated. […] TV (mm^3)=(length×width^2)/2 RTV=(TV on day 15)/(TV on day 0 or day 1) T/C(%)=(the mean RTV of a test compound treatment group)/(the mean RTV of the control group)×100

[2] = mouse, microsomes, 0.5 h, 1 μM
[3] = Evaluation of stability in liver microsome; details: mouse liver microsome, 1 μM, 37° C. for 30 minutes

Structure (SMILES)	Remaining (%) [3]	further results
COCc1ccc(NC(=O)c2c(C#CCN3CCOCC3)n(C3(C)CC3)c3ncnc(N)c23)cc1 [Example 85, 4-amino-N-[4-(methoxymethyl)phenyl]-7-(1-methylcyclopropyl)-6-(3-morpholinoprop-1-yn-1-yl)-7H-pyrrolo[2,3-d]pyrimidine-5-carboxamide]	–	TV (mm^3) Day 0 Mean ± SE [1]: 169.45 ± 16.73 mm^3
C/C=C/c1ccc(NC(=O)c2c(OCC)n(C3(C)CC3)c3ncnc(N)c23)cc1 [Example 117, (E)-4-amino-6-ethoxy-7-(1-methylcyclopropyl)-N-(4-(prop-1-en-1-yl)phenyl)-7H-pyrrolo[2,3-d]pyrimidine-5-carboxamide]	–	Remaining (%) [2]: 53%
COCc1ccc(NC(=O)c2cn(C(C)(C)CF)c3ncnc(N)c23)cc1F [Example 41, 4-amino-7-(1-fluoro-2-methylpropan-2-yl)-N-(3-fluoro-4-(methoxymethyl)phenyl)-7H-pyrrolo[2,3-d]pyrimidine-5-carboxamide]	56%	–
COCc1ccc(NC(=O)c2c(C#CC3CCN(C)CC3)n(C3(C)CC3)c3ncnc(N)c23)cc1 [Example 183, 4-amino-N-(4-(methoxymethyl)phenyl)-7-(1-methylcyclopropyl)-6-((1-methylpiperidin-4-yl)ethynyl)-7H-pyrrolo[2,3-d]pyrimidine-5-carboxamide]	77%	–
COCc1ccc(NC(=O)c2c(C#CC3CCOCC3)n(C3(C)CC3)c3ncnc(N)c23)cc1 [Example 87, 4-amino-N-[4-(methoxymethyl)phenyl]-7-(1-methylcyclopropyl)-6-((tetrahydro-2H-pyran-4-yl)ethynyl)-7H-pyrrolo[2,3-d]pyrimidine-5-carboxamide]	63%	–
COCc1ccc(NC(=O)c2c(C#CCC3(O)CCOCC3)n(C3(C)CC3)c3ncnc(N)c23)cc1 [Example 143, 4-amino-6-(3-(4-hydroxytetrahydro-2H-pyran-4-yl)prop-1-yn-1-yl)-N-(4-(methoxymethyl)phenyl)-7-(1-methylcyclopropyl)-7H-pyrrolo[2,3-d]pyrimidine-5-carboxamide]	68%	–
COCc1ccc(NC(=O)c2c(OC[C@@H](C)OC)n(C3(C)CC3)c3ncnc(N)c23)cc1 [Example 96, (R)-4-amino-N-(4-(methoxymethyl)phenyl)-6-(2-methoxypropoxy)-7-(1-methylcyclopropyl)-7H-pyrrolo[2,3-d]pyrimidine-5-carboxamide]	71%	–
COCc1ccc(NC(=O)c2c(C#Cc3ccsc3)n(C3(C)CC3)c3ncnc(N)c23)cc1 [Example 176, 4-amino-N-(4-(methoxymethyl)phenyl)-7-(1-methylcyclopropyl)-6-(thiophen-3-ylethynyl)-7H-pyrrolo[2,3-d]pyrimidine-5-carboxamide]	70%	–
COCc1ccc(NC(=O)c2c(-c3ccc(CO)nc3)n(C3(C)CC3)c3ncnc(N)c23)cc1 [Example 179, 4-amino-6-(6-(hydroxymethyl)pyridin-3-yl)-N-(4-(methoxymethyl)phenyl)-7-(1-methylcyclopropyl)-7H-pyrrolo[2,3-d]pyrimidine-5-carboxamide]	85%	–
COCc1ccc(NC(=O)c2c(OCC3CCOCC3)n(C3(C)CC3)c3ncnc(N)c23)cc1 [Example 141, 4-amino-N-(4-(methoxymethyl)phenyl)-7-(1-methylcyclopropyl)-6-((tetrahydro-2H-pyran-4-yl)methoxy)-7H-pyrrolo[2,3-d]pyrimidine-5-carboxamide]	68%	–
COCc1ccc(NC(=O)c2c(C#CC(C)(C)O)n(C3(C)CC3)c3ncnc(N)c23)cc1 [Example 174, 4-amino-6-(3-hydroxy-3-methylbut-1-yn-1-yl)-N-(4-(methoxymethyl)phenyl)-7-(1-methylcyclopropyl)-7H-pyrrolo[2,3-d]pyrimidine-5-carboxamide]	72%	–
COCc1ccc(NC(=O)c2c(OCC3CCCCO3)n(C3(C)CC3)c3ncnc(N)c23)cc1 (centres unmarked) [Example 102, 4-amino-N-(4-(methoxymethyl)phenyl)-7-(1-methylcyclopropyl)-6-((tetrahydro-2H-pyran-2-yl)methoxy)-7H-pyrrolo[2,3-d]pyrimidine-5-carboxamide]	60%	–
COCc1ccc(NC(=O)c2cn(C(C)(C)C(F)F)c3ncnc(N)c23)cc1 [Example 50, 4-amino-7-(1,1-difluoro-2-methylpropan-2-yl)-N-(4-(methoxymethyl)phenyl)-7H-pyrrolo[2,3-d]pyrimidine-5-carboxamide]	53%	–
COCc1ccc(NC(=O)c2cn(C(C)(C)C)c3ncnc(N)c23)cc1F [Example 30, 4-amino-7-(tert-butyl)-N-(3-fluoro-4-(methoxymethyl)phenyl)-7H-pyrrolo[2,3-d]pyrimidine-5-carboxamide]	54%	–
COCc1ccc(NC(=O)c2c(C#Cc3c[nH]c4ccccc34)n(C3(C)CC3)c3ncnc(N)c23)cc1 [Example 121, 6-((1H-indol-3-yl)ethynyl)-4-amino-N-(4-(methoxymethyl)phenyl)-7-(1-methylcyclopropyl)-7H-pyrrolo[2,3-d]pyrimidine-5-carboxamide]	74%	–
COCc1ccc(NC(=O)c2c(-c3cncnc3)n(C3(C)CC3)c3ncnc(N)c23)cc1 [Example 194, 4-amino-N-(4-(methoxymethyl)phenyl)-7-(1-methylcyclopropyl)-6-(pyrimidin-5-yl)-7H-pyrrolo[2,3-d]pyrimidine-5-carboxamide]	67%	–
COCc1ccc(NC(=O)c2c(OCC3CCOC3)n(C3(C)CC3)c3ncnc(N)c23)cc1 (centres unmarked) [Example 101, 4-amino-N-(4-(methoxymethyl)phenyl)-7-(1-methylcyclopropyl)-6-((tetrahydrofuran-3-yl)methoxy)-7H-pyrrolo[2,3-d]pyrimidine-5-carboxamide]	68%	–
CCn1cc(C#Cc2c(C(=O)Nc3ccc(COC)cc3)c3c(N)ncnc3n2C2(C)CC2)cn1 [Example 118, 4-amino-6-((1-ethyl-1H-pyrazol-4-yl)ethynyl)-N-(4-(methoxymethyl)phenyl)-7-(1-methylcyclopropyl)-7H-pyrrolo[2,3-d]pyrimidine-5-carboxamide]	73%	–
COCc1ccc(NC(=O)c2c(C#Cc3ccc(Cl)nc3)n(C3(C)CC3)c3ncnc(N)c23)cc1 [Example 120, 4-amino-6-((6-chloropyridin-3-yl)ethynyl)-N-(4-(methoxymethyl)phenyl)-7-(1-methylcyclopropyl)-7H-pyrrolo[2,3-d]pyrimidine-5-carboxamide]	72%	–
COCc1ccc(NC(=O)c2c(C#Cc3cnn(C(C)C)c3)n(C3(C)CC3)c3ncnc(N)c23)cc1 [Example 144, 4-amino-6-((1-isopropyl-1H-pyrazol-4-yl)ethynyl)-N-(4-(methoxymethyl)phenyl)-7-(1-methylcyclopropyl)-7H-pyrrolo[2,3-d]pyrimidine-5-carboxamide]	79%	–
COCc1ccc(NC(=O)c2c(OCC(C)OC)n(C3(C)CC3)c3ncnc(N)c23)cc1 (centres unmarked) [Example 100, 4-amino-N-(4-(methoxymethyl)phenyl)-6-(2-methoxypropoxy)-7-(1-methylcyclopropyl)-7H-pyrrolo[2,3-d]pyrimidine-5-carboxamide]	76%	–
COCc1ccc(NC(=O)c2c(C#CC3(O)CCOCC3)n(C3(C)CC3)c3ncnc(N)c23)cc1 [Example 185, 4-amino-6-((4-hydroxytetrahydro-2H-pyran4-yl)ethynyl)-N-(4-(methoxymethyl)phenyl)-7-(1-methylcyclopropyl)-7H-pyrrolo[2,3-d]pyrimidine-5-carboxamide]	80%	–
COCc1ccc(NC(=O)c2c(C#Cc3cncnc3)n(C3(C)CC3)c3ncnc(N)c23)cc1 [Example 196, 4-amino-N-(4-(methoxymethyl)phenyl)-7-(1-methylcyclopropyl)-6-(pyrimidin-5-ylethynyl)-7H-pyrrolo[2,3-d]pyrimidine-5-carboxamide]	53%	–
COCc1ccc(NC(=O)c2c(C#CC3(O)CCOC3)n(C3(C)CC3)c3ncnc(N)c23)cc1 (centres unmarked) [Example 177, 4-amino-6-((3-hydroxytetrahydrofuran-3-yl)ethynyl)-N-(4-(methoxymethyl)phenyl)-7-(1-methylcyclopropyl)-7H-pyrrolo[2,3-d]pyrimidine-5-carboxamide]	72%	–
COCc1ccc(NC(=O)c2c(C#CCCN3CCOCC3)n(C3(C)CC3)c3ncnc(N)c23)cc1 [Example 187, 4-amino-N-(4-(methoxymethyl)phenyl)-7-(1-methylcyclopropyl)-6-(4-morpholinobut-1-yn-1-yl)-7H-pyrrolo[2,3-d]pyrimidine-5-carboxamide]	68%	–
COCc1ccc(NC(=O)c2c(C#CCN3CCN(C)CC3)n(C3(C)CC3)c3ncnc(N)c23)cc1 [Example 132, 4-amino-N-(4-(methoxymethyl)phenyl)-7-(1-methylcyclopropyl)-6-(3-(4-methylpiperazin-1-yl)prop-1-yn-1-yl)-7H-pyrrolo[2,3-d]pyrimidine-5-carboxamide]	77%	–
